PubChem BioAssay (NCI)
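Step 1: Grow cells in 96-well plates. Step 2: Expose to compound for 48 hours at 5 concentrations. Step 3: Interpolate endpoints linearly; if unreached, use highest concentration. Abbreviation: GI50, concentration required for 50% inhibition of growth. TGI: total growth inhibition.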

Columns and labels:
Test in all cases: NCI anticancer screen, dose series, 48 h
[1] = test system: LXFL 529 NSCLC
[2] = test system: DMS 273 small cell lung
[3] = test system: IGROV1 ovarian
[4] = test system: UO-31 renal
[5] = test system: OVCAR-8 ovarian
[6] = test system: K-562 leukemia
[7] = test system: HCT-116 colon
[8] = test system: SF-268 CNS
[9] = test system: UACC-257 melanoma
[10] = test system: A498 renal
[11] = test system: OVCAR-5 ovarian
[12] = test system: RPMI-8226 leukemia
[13] = test system: HCC-2998 colon
[14] = test system: DLD-1 colon
[15] = test system: HT29 colon
[16] = test system: SW-620 colon
[17] = test system: SK-OV-3 ovarian
[18] = test system: UACC-62 melanoma
[19] = test system: NCI-H23 lung
[20] = test system: CAKI-1 renal
[21] = test system: NCI-H226 lung
[22] = test system: MALME-3M melanoma
[23] = test system: SN12C renal
[24] = test system: COLO 205 colon
[25] = test system: SF-295 CNS
[26] = test system: HOP-92 NSCLC
[27] = test system: HOP-62 NSCLC
[28] = test system: LOX IMVI melanoma
[29] = test system: EKVX NSCLC
[30] = test system: 786-0 renal
[31] = test system: M19-MEL melanoma
[32] = test system: SNB-78 CNS
[33] = test system: XF 498 CNS
[34] = test system: MOLT-4 leukemia
[35] = test system: HCT-15 colon
[36] = test system: TK-10 renal
[37] = test system: OVCAR-3 ovarian
[38] = test system: A549 NSCLC
[39] = test system: KM12 colon
[40] = test system: HOP-18 NSCLC
[41] = test system: CCRF-CEM leukemia
[42] = test system: DMS 114 small cell lung
[43] = test system: U251 CNS
[44] = test system: HL-60(TB) leukemia
[45] = test system: M14 melanoma
[46] = test system: KM20L2 colon
[47] = test system: ACHN renal
[48] = test system: SF-539 CNS
[49] = test system: SNB-19 CNS
[50] = test system: OVCAR-4 ovarian
[51] = test system: NCI-H522 lung
[52] = test system: NCI-H460 lung
[53] = test system: SNB-75 CNS
[54] = test system: SK-MEL-28 melanoma
[55] = test system: SK-MEL-2 melanoma
[56] = test system: SK-MEL-5 melanoma
[57] = test system: RXF 393 renal
[58] = test system: SR leukemia

C#Cc1c(C)c(/C=C/C(C)=C/C(=O)OC)n(C)c1C
TGI [1]: > 100 µM
TGI [2]: > 100 µM
TGI [3]: > 100 µM
TGI [4]: > 100 µM
TGI [5]: > 100 µM
TGI [6]: > 100 µM
TGI [7]: > 100 µM
TGI [8]: > 100 µM
TGI [9]: > 100 µM
TGI [10]: > 100 µM
TGI [11]: > 100 µM
TGI [12]: > 100 µM
TGI [13]: > 100 µM
TGI [14]: > 100 µM
TGI [15]: > 100 µM
TGI [16]: > 100 µM
TGI [17]: > 100 µM
TGI [18]: > 100 µM
TGI [19]: > 100 µM
TGI [20]: > 100 µM
TGI [21]: > 100 µM
TGI [22]: > 100 µM
TGI [23]: > 100 µM
TGI [24]: > 100 µM
TGI [25]: > 100 µM
TGI [26]: 85.1 µM
TGI [27]: > 100 µM
TGI [28]: > 100 µM
TGI [29]: > 100 µM
TGI [30]: > 100 µM
TGI [31]: > 100 µM
TGI [32]: > 100 µM
TGI [33]: > 100 µM
TGI [34]: > 100 µM
TGI [35]: > 100 µM
TGI [36]: > 100 µM
TGI [37]: > 100 µM
TGI [38]: > 100 µM
TGI [39]: > 100 µM
TGI [40]: > 100 µM
TGI [41]: > 100 µM
TGI [42]: > 100 µM
TGI [43]: > 100 µM
TGI [44]: 79.4 µM
TGI [45]: > 100 µM
TGI [46]: > 100 µM
TGI [47]: > 100 µM
TGI [48]: > 100 µM
TGI [49]: > 100 µM
TGI [50]: > 100 µM
TGI [51]: > 100 µM

COc1cccc(C=O)c1[O-].[O]=[U](=[O])([OH2+])[OH2+]
TGI [52]: 58.4 µM
TGI [53]: 81.3 µM
TGI [1]: > 100 µM
TGI [2]: > 100 µM
TGI [54]: > 100 µM
TGI [3]: > 100 µM
TGI [4]: > 100 µM
TGI [5]: 56.2 µM
TGI [6]: > 100 µM
TGI [7]: > 100 µM
TGI [8]: > 100 µM
TGI [9]: > 100 µM
TGI [10]: > 100 µM
TGI [11]: > 100 µM
TGI [12]: > 100 µM
TGI [13]: > 100 µM
TGI [14]: > 100 µM
TGI [15]: > 100 µM
TGI [16]: > 100 µM
TGI [17]: 63.6 µM
TGI [18]: 57.6 µM
TGI [19]: > 100 µM
GI50 [20]: > 100 µM
TGI [20]: > 100 µM
TGI [21]: > 100 µM
TGI [22]: > 100 µM
TGI [23]: > 100 µM
TGI [24]: > 100 µM
TGI [25]: 78.6 µM
TGI [26]: > 100 µM
TGI [27]: > 100 µM
TGI [28]: > 100 µM
TGI [29]: > 100 µM
TGI [30]: 71.9 µM
TGI [31]: > 100 µM
TGI [32]: > 100 µM
TGI [55]: > 100 µM
TGI [34]: 73.2 µM
TGI [35]: > 100 µM
TGI [36]: 97.4 µM
TGI [37]: 49.4 µM
TGI [38]: > 100 µM
TGI [39]: > 100 µM
TGI [40]: 88.9 µM
TGI [41]: > 100 µM
TGI [42]: > 100 µM
TGI [43]: 59.1 µM
TGI [56]: > 100 µM
TGI [45]: > 100 µM
TGI [57]: 94.1 µM
TGI [46]: > 100 µM
TGI [47]: 79.8 µM
TGI [58]: 87.5 µM
TGI [48]: 64.9 µM
TGI [49]: 45.5 µM
TGI [50]: > 100 µM
TGI [51]: > 100 µM
